Legend:
giant foxtail = experiment: Test B pre-/postemergence herbicide test; format: in vivo, Setaria faberi; settings: for Foxtail, Giant plant response rating: postemergence, scale 0 (no effect) to 100 (complete control)
How it was run: (§1)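 Greenhouse pot assay with simultaneous preemergence (treated seed) and postemergence (2–18 cm seedlings) applications of surfactant-containing, non-phytotoxic solvent formulations. Response scored visually 13–15 days later on a 0–100 scale, 100 meaning complete control.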

wheat = experiment: Test B postemergence herbicide test; format: in vivo, Triticum aestivum; set-up: key to Wheat plant response rating: 0 = no effect, 100 = complete control; settings: postemergence, visual rating, scale 0 (no effect) to 100 (complete control)
How it was run: (§2)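 Each value is a visual 0–100 response rating taken against controls 13 to 15 days after treatment in the greenhouse. Plants received formulated chemical postemergence at the 1- to 4-leaf stage or, in flooded paddy, at the 2-leaf stage.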

barnyardgrass [1] = experiment: Test B pre-/postemergence herbicide test; format: in vivo, Echinochloa crus-galli; settings: for Barnyardgrass plant response rating: postemergence, scale 0 (no effect) to 100 (complete control)
How it was run: (§3)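 Formulation: non-phytotoxic solvent mix with surfactant. Timing: preemergence on seed and postemergence on 2–18 cm plants, applied concurrently. Readout after 13–15 d greenhouse: visual 0–100 control rating against controls.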

cocklebur = experiment: Test B pre-/postemergence herbicide test; format: in vivo, Xanthium strumarium; settings: for Cocklebur plant response rating: postemergence, scale 0 (no effect) to 100 (complete control)
How it was run: as §3

Surinam grass = experiment: Test B pre-/postemergence herbicide test; format: in vivo, Urochloa decumbens; settings: for Surinam Grass plant response rating: postemergence, scale 0 (no effect) to 100 (complete control)
How it was run: as §1

rice [2] = experiment: Test B pre-/postemergence herbicide test; format: in vivo, Oryza sativa; settings: 0 = no effect, 100 = complete control, preemergence
From the text: Seeds selected from barnyardgrass (Echinochloa crus-galli (L.) Beauv.), Surinam grass (Urochloa decumbens (Staph) R. D. Webster, previously named Brachiaria decumbens Stapf), cocklebur (Xanthium strumarium L.), corn (Zea mays L.), large crabgrass (Digitaria sanguinalis (L.) Scop.), giant foxtail (Setaria faberi Herim.), lambsquarters (Chenopodium album L.), morningglory (Ipomoea coccinea L.), pigweed (Amaranthus retroflexus L.), rice (Oryza sativa L.) and velvetleaf (Abutilon theophrasti Medik.) were planted and treated preemergence with test chemicals formulated in a non-phytotoxic solvent mixture which included a surfactant.
At the same time, plants selected from these crop and weed species and also blackgrass (Alopecurus myosuroides Huds.), wheat (Triticum aestivum L.) and wild oat (Avena fatua L.) were treated with postemergence applications of test chemicals formulated in the same manner. Plants ranged in height from 2 to 18 cm (1- to 4-leaf stage) for postemergence treatments. Plant species in the flooded paddy test consisted of rice (Oryza sativa L.), small flower umbrella sedge (Cyperus difformis L.), ducksalad (Heteranthera limosa (Sw.) Willd.) and barnyardgrass (Echinochloa crus-galli (L.) Beauv.) grown to the 2-leaf stage for testing. Treated plants and controls were maintained in a greenhouse for 13 to 15 days, after which time all species were compared to controls and visually evaluated. Plant response ratings, summarized in Table B, are based on a scale of 0 to 100 where 0 is no effect and 100 is complete control. A dash (-) response means no test result.

morningglory = experiment: Test B pre-/postemergence herbicide test; format: in vivo, Ipomoea coccinea; settings: for Morningglory plant response rating: postemergence, scale 0 (no effect) to 100 (complete control)
How it was run: as §3

pigweed = experiment: Test B pre-/postemergence herbicide test; format: in vivo, Amaranthus retroflexus; settings: for Pigweed plant response rating: postemergence, scale 0 (no effect) to 100 (complete control)
How it was run: as §1

rice [3] = experiment: Test B flooded paddy test; format: in vivo, Oryza sativa; settings: 1000 g ai/ha, scale 0 to 100 (0 no effect, 100 complete control)
How it was run: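 Greenhouse test; postemergence application to plants at 1–4 leaves (2–18 cm); paddy species at 2 leaves; evaluated visually vs controls at 13–15 days; scale 0–100 (100 = complete control).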

velvetleaf = experiment: Test B pre-/postemergence herbicide test; format: in vivo, Abutilon theophrasti; settings: for Velvetleaf plant response rating: postemergence, scale 0 (no effect) to 100 (complete control)
How it was run: as §1

blackgrass = experiment: Test B postemergence herbicide test; format: in vivo, Alopecurus myosuroides; settings: postemergence, visual rating, scale 0 (no effect) to 100 (complete control)
How it was run: (§4)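 Scale 0–100: zero equals no visible effect, 100 complete control, judged by eye relative to controls. Timing: 13 to 15 days in greenhouse post-treatment. Growth stage at spraying: two leaves (paddy) or one to four leaves, 2–18 cm (postemergence).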

[4] = system: small flower umbrella sedge; experiment: Test B flooded paddy test; format: in vivo, Cyperus difformis; settings: 1000 g ai/ha, scale 0 to 100 (0 no effect, 100 complete control)
How it was run: as §4

barnyardgrass [5] = experiment: Test B flooded paddy test; format: in vivo, Echinochloa crus-galli; settings: 1000 g ai/ha, scale 0 to 100 (0 no effect, 100 complete control)
How it was run: as §4

lambsquarters = experiment: Test B pre-/postemergence herbicide test; format: in vivo, Chenopodium album; settings: for Lambsquarters plant response rating: postemergence, scale 0 (no effect) to 100 (complete control)
How it was run: as §1

corn = experiment: Test B pre-/postemergence herbicide test; format: in vivo, Zea mays; settings: for Corn plant response rating: postemergence, scale 0 (no effect) to 100 (complete control)
How it was run: as §1

wild oat = experiment: Test B postemergence herbicide test; format: in vivo, Avena fatua; settings: postemergence, visual rating, scale 0 (no effect) to 100 (complete control)
How it was run: as §2

ducksalad = experiment: Test B flooded paddy test; format: in vivo, Heteranthera limosa; settings: 1000 g ai/ha, scale 0 to 100 (0 no effect, 100 complete control)
How it was run: as §4

large crabgrass = experiment: Test B pre-/postemergence herbicide test; format: in vivo, Digitaria sanguinalis; settings: for Crabgrass, Large plant response rating: postemergence, scale 0 (no effect) to 100 (complete control)
How it was run: as §1

[6] = 125 g ai/ha, 0 = no effect, 100 = complete control, preemergence
[7] = 500 g ai/ha, visual rating, 0 = no effect, 100 = complete control, preemergence

CCc1nn(C(C)(C)C)cc1C(=O)Nc1ccc(F)c(C(=O)N(C)C)c1 [Compound 239]
20: Cocklebur plant response rating (cocklebur; 500 g ai/ha, visual rating) | Pigweed plant response rating (pigweed; 125 g ai/ha, visual rating) | Lambsquarters plant response rating (0 to 100 scale) (lambsquarters; [6]) | Corn plant response rating (corn; 500 g ai/ha, visual rating) | Crabgrass, Large plant response rating (large crabgrass; 500 g ai/ha, visual rating)
0: Foxtail, Giant plant response rating (0 to 100 scale) (giant foxtail; [6]) | Plant response rating, Foxtail, Giant (giant foxtail; [7]) | Foxtail, Giant plant response rating (giant foxtail; 125 g ai/ha, visual rating) | Foxtail, Giant plant response rating (giant foxtail; 500 g ai/ha, visual rating) | Wheat plant response rating (wheat; 125 g ai/ha) | Wheat plant response rating (wheat; 500 g ai/ha) | Barnyardgrass plant response rating (0 to 100 scale) (barnyardgrass [1]; [6]) | Barnyardgrass plant response rating (barnyardgrass [1]; 125 g ai/ha, visual rating) | Barnyardgrass plant response rating (barnyardgrass [1]; 500 g ai/ha, visual rating) | Cocklebur plant response rating (0 to 100 scale) (cocklebur; [6]) | Plant response rating, Cocklebur (cocklebur; [7]) | Cocklebur plant response rating (cocklebur; 125 g ai/ha, visual rating) | Surinam Grass plant response rating (0 to 100 scale) (Surinam grass; [6]) | Plant response rating, Surinam Grass (Surinam grass; [7]) | Surinam Grass plant response rating (Surinam grass; 125 g ai/ha, visual rating) | Rice plant response rating (0 to 100 scale) (rice [2]; 125 g ai/ha) | Plant response rating, Rice (rice [2]; 500 g ai/ha, visual rating) | Morningglory plant response rating (0 to 100 scale) (morningglory; [6]) | Plant response rating, Morningglory (morningglory; [7]) | Morningglory plant response rating (morningglory; 125 g ai/ha, visual rating) | Pigweed plant response rating (0 to 100 scale) (pigweed; [6]) | Velvetleaf plant response rating (0 to 100 scale) (velvetleaf; [6]) | Plant response rating, Velvetleaf (velvetleaf; [7]) | Velvetleaf plant response rating (velvetleaf; 125 g ai/ha, visual rating) | Blackgrass plant response rating (blackgrass; 125 g ai/ha) | Blackgrass plant response rating (blackgrass; 500 g ai/ha) | Barnyardgrass plant response rating (barnyardgrass [5]) | Lambsquarters plant response rating (lambsquarters; 125 g ai/ha, visual rating) | Corn plant response rating (0 to 100 scale) (corn; [6]) | Plant response rating, Corn (corn; [7]) | Corn plant response rating (corn; 125 g ai/ha, visual rating) | Oat, Wild plant response rating (wild oat; 125 g ai/ha) | Oat, Wild plant response rating (wild oat; 500 g ai/ha) | Ducksalad plant response rating (ducksalad) | Crabgrass, Large plant response rating (0 to 100 scale) (large crabgrass; [6]) | Crabgrass, Large plant response rating (large crabgrass; 125 g ai/ha, visual rating)
70: Plant response rating, Pigweed (pigweed; [7]) | Sedge, Umbrella plant response rating [4] | Plant response rating, Lambsquarters (lambsquarters; [7])
30: Surinam Grass plant response rating (Surinam grass; 500 g ai/ha, visual rating) | Rice plant response rating (rice [3]) | Lambsquarters plant response rating (lambsquarters; 500 g ai/ha, visual rating)
60: Plant response rating, Barnyardgrass (barnyardgrass [1]; [7])
50: Pigweed plant response rating (pigweed; 500 g ai/ha, visual rating)
100: Plant response rating, Crabgrass, Large (large crabgrass; [7])
10: Morningglory plant response rating (morningglory; 500 g ai/ha, visual rating) | Velvetleaf plant response rating (velvetleaf; 500 g ai/ha, visual rating)

Reference: US20060069132A1, “Azolecarboxamide herbicides” (priority 2004, published 2006)
